Measurements from patent US20190345138A1, “HETEROCYCLIC AMIDES AS KINASE INHIBITORS” (GlaxoSmithKline Intellectual Property Development Limited, priority 2016, published 2019).
Values joined by “and” are separate entries in the source; they are usually repeats but may differ in a detail not shown here. Equal entries are not always repeated.

target: T1, RIP1 kinase (Homo sapiens, UniProt Q13546); test: fluorescent polarization based binding assay; conditions: mean of a minimum of 2 experiments
T1 sequence (Q13546 1-375 limits assumed): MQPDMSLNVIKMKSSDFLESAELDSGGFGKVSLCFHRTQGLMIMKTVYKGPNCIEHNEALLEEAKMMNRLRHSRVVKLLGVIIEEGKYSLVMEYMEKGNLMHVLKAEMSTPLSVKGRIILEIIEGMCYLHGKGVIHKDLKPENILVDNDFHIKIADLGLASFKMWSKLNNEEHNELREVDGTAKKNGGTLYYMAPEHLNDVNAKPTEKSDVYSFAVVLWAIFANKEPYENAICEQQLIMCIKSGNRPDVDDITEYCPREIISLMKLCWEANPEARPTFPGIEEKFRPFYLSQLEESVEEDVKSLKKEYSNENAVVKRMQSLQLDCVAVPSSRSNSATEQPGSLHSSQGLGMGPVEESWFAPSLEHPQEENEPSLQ
Description: A fluorescent polarization based binding assay was used to assess the activity of the compounds of this invention, the details of which are disclosed in International Patent Appln. No. PCT/IB2014/059004, now, International Patent Appln. Pub.

IC50	SMILES
1 to 31.6 nM	N#Cc1cnc(N2CCC(C(=O)N3N=CCC3c3ccccc3)CC2)nc1 (racemic) [Example 2, 2-(4-(5-phenyl-4,5-dihydro-1H-pyrazole-1-carbonyl)piperidin-1-yl)pyrimidine-5-carbonitrile]
1 to 31.6 nM	COc1ccnc(N2CCC(C(=O)N3N=CCC3c3ccccc3)CC2)n1 (racemic) [Example 3, (1-(4-methoxypyrimidin-2-yl)piperidin-4-yl)(5-phenyl-4,5-dihydro-1H-pyrazol-1-yl)methanone]
1 to 31.6 nM	COc1cnc(N2CCC(C(=O)N3N=CCC3c3ccccc3)CC2)nc1 (racemic) [Example 7, (1-(5-methoxypyrimidin-2-yl)piperidin-4-yl)(5-phenyl-4,5-dihydro-1H-pyrazol-1-yl)methanone]
1 to 31.6 nM	O=C(C1CCN(c2ncc3[nH]cnc3n2)CC1)N1N=CC[C@H]1c1ccccc1 [Example 9, (S)-(1-(7H-purin-2-yl)piperidin-4-yl)(5-phenyl-4,5-dihydro-1H-pyrazol-1-yl)methanone]
1 to 31.6 nM	COC(=O)c1cnc(N2CCC(C(=O)N3N=CC[C@H]3c3ccccc3)CC2)nc1 [Example 10, (S)-methyl 2-(4-(5-phenyl-4,5-dihydro-1H-pyrazole-1-carbonyl)piperidin-1-yl)pyrimidine-5-carboxylate]
1 to 31.6 nM	Nc1nccc(N2CCC(C(=O)N3N=CC[C@H]3c3ccccc3)CC2)n1 [Example 11, (S)-(1-(2-aminopyrimidin-4-yl)piperidin-4-yl)(5-phenyl-4,5-dihydro-1H-pyrazol-1-yl)methanone]
1 to 31.6 nM	NC(=O)c1ccc(N2CCC(C(=O)N3N=CC[C@H]3c3ccccc3)CC2)nc1 [Example 30, (S)-6-(4-(5-phenyl-4,5-dihydro-1H-pyrazole-1-carbonyl)piperidin-1-yl)nicotinamide]
1 to 31.6 nM	O=C(C1CCN(c2nc(=O)c3cn[nH]c3[nH]2)CC1)N1N=CC[C@H]1c1ccccc1 [Example 37, (S)-6-(4-(5-phenyl-4,5-dihydro-1H-pyrazole-1-carbonyl)piperidin-1-yl)-1H-pyrazolo[3,4-d]pyrimidin-4(7H)-one]
1 to 31.6 nM	N#Cc1cccc([C@@H]2CC=NN2C(=O)C2CCN(c3ccn4nccc4n3)CC2)c1 [Example 62, (S)-3-(1-(1-(pyrazolo[1,5-a]pyrimidin-5-yl)piperidine-4-carbonyl)-4,5-dihydro-1H-pyrazol-5-yl)benzonitrile]
1 to 31.6 nM	NC(=O)c1cnc(N2CCC(C(=O)N3N=CC[C@H]3c3ccccc3)CC2)cn1 [Example 63, (S)-5-(4-(5-phenyl-4,5-dihydro-1H-pyrazole-1-carbonyl)piperidin-1-yl)pyrazine-2-carboxamide]
1 to 31.6 nM	CCOC(=O)c1coc(N2CCC(C(=O)N3N=CC[C@H]3c3ccccc3)CC2)n1 [Example 65, (S)-ethyl 2-(4-(5-phenyl-4,5-dihydro-1H-pyrazole-1-carbonyl)piperidin-1-yl)oxazole-4-carboxylate]
1 to 31.6 nM	COc1nccc(N2CCC(C(=O)N3N=CC[C@H]3c3cccc(C#N)c3)CC2)n1 [Example 75, (S)-3-(1-(1-(2-methoxypyrimidin-4-yl)piperidine-4-carbonyl)-4,5-dihydro-1H-pyrazol-5-yl)benzonitrile]
1 to 31.6 nM and 1 to 10 nM	O=C(C1CCN(c2ccn3nccc3n2)CC1)N1N=CC[C@H]1c1cc(F)cc(F)c1 [Example 90, (S)-(5-(3,5-difluorophenyl)-4,5-dihydro-1H-pyrazol-1-yl)(1-(pyrazolo[1,5-a]pyrimidin-5-yl)piperidin-4-yl)methanone]
1 to 31.6 nM	CCOC(=O)c1cnc(N2CCC(C(=O)N3N=CC[C@H]3c3cc(F)cc(F)c3)CC2)o1 [Example 107, (S)-ethyl 2-(4-(5-(3,5-difluorophenyl)-4,5-dihydro-1H-pyrazole-1-carbonyl)piperidin-1-yl)oxazole-5-carboxylate]
1 to 31.6 nM	COc1cc(N2CCC(C(=O)N3N=CC[C@H]3c3cncc(F)c3)CC2)ncn1 [Example 113, (S)-(5-(5-fluoropyridin-3-yl)-4,5-dihydro-1H-pyrazol-1-yl)(1-(6-methoxypyrimidin-4-yl)piperidin-4-yl)methanone]
1 to 31.6 nM	CSc1nccc(N2CCC(C(=O)N3N=CC[C@H]3c3cncc(F)c3)CC2)n1 [Example 114, (S)-(5-(5-fluoropyridin-3-yl)-4,5-dihydro-1H-pyrazol-1-yl)(1-(2-(methylthio)pyrimidin-4-yl)piperidin-4-yl)methanone]
1 to 31.6 nM	CC(=O)Nc1cc(N2CCC(C(=O)N3N=CC[C@H]3c3cc(F)cc(F)c3)CC2)ncn1 [Example 120, (S)-N-(6-(4-(5-(3,5-difluorophenyl)-4,5-dihydro-1H-pyrazole-1-carbonyl)piperidin-1-yl)pyrimidin-4-yl)acetamide]
1 to 31.6 nM	NC(=O)c1coc(N2CCC(C(=O)N3N=CC[C@H]3c3ccccc3)CC2)n1 [Example 136, (S)-2-(4-(5-phenyl-4,5-dihydro-1H-pyrazole-1-carbonyl)piperidin-1-yl)oxazole-4-carboxamide]
1 to 31.6 nM and 1 to 10 nM	O=C(C1CCN(c2nccc(-c3nn[nH]n3)n2)CC1)N1N=CC[C@H]1c1ccccc1 [Example 148, (S)-(1-(4-(2H-tetrazol-5-yl)pyrimidin-2-yl)piperidin-4-yl)(5-phenyl-4,5-dihydro-1H-pyrazol-1-yl)methanone]
1 to 31.6 nM and 1 to 10 nM	O=C(C1CCN(c2ncc(F)c(OCc3nn[nH]n3)n2)CC1)N1N=CC[C@H]1c1ccccc1 [Example 154, (S)-(1-(4-((2H-tetrazol-5-yl)methoxy)-5-fluoropyrimidin-2-yl)piperidin-4-yl)(5-phenyl-4,5-dihydro-1H-pyrazol-1-yl)methanone]
1 to 31.6 nM	O=C1NCC[C@@H]1c1nc(N2CCC(C(=O)N3N=CC[C@H]3c3cncc(F)c3)CC2)ncc1F [Example 166, (R)-3-(5-fluoro-2-(4-((S)-5-(5-fluoropyridin-3-yl)-4,5-dihydro-1H-pyrazole-1-carbonyl)piperidin-1-yl)pyrimidin-4-yl)pyrrolidin-2-one]
1 to 31.6 nM	NC(=O)COc1nc(N2CCC(C(=O)N3N=CC[C@H]3c3ccccc3)CC2)ncc1F [Example 167, (S)-2-((5-fluoro-2-(4-(5-phenyl-4,5-dihydro-1H-pyrazole-1-carbonyl)piperidin-1-yl)pyrimidin-4-yl)oxy)acetamide]

test system: human monocytic leukemia U937 cells; test: necroptosis assay in U937 cells; assay type: cell-based; conditions: Homo sapiens, U-937, U937 cells; viability by cellular ATP (Cell Titer-Glo); read-out: pIC50, inhibited necrosis in U937 cells (converted)
Protocol: The efficacy of RIP1 inhibitors can be tested […] in vitro using a human monocytic leukemia U937 or mouse L929 fibrosarcoma cells in a necroptosis assay. As determined using the method described in S. He et al., Cell, 137(6):1100-1111 (2009) and International Patent Appln. No. PCT/IB2014/059004, now, International Patent Appln. Pub.
Viability was measured by quantitating cellular levels of ATP using the Cell Titer-Glo kit. All data are means±standard deviation of the mean.

SMILES	IC50
N#Cc1cnc(N2CCC(C(=O)N3N=CCC3c3ccccc3)CC2)nc1 (racemic) [Example 2, 2-(4-(5-phenyl-4,5-dihydro-1H-pyrazole-1-carbonyl)piperidin-1-yl)pyrimidine-5-carbonitrile]	1 to 100 nM
COc1ccnc(N2CCC(C(=O)N3N=CCC3c3ccccc3)CC2)n1 (racemic) [Example 3, (1-(4-methoxypyrimidin-2-yl)piperidin-4-yl)(5-phenyl-4,5-dihydro-1H-pyrazol-1-yl)methanone]	1 to 100 nM
O=C(C1CCN(c2nccc(-c3ccccc3)n2)CC1)N1N=CCC1c1ccccc1 (racemic) [Example 4, (5-phenyl-4,5-dihydro-1H-pyrazol-1-yl)(1-(4-phenylpyrimidin-2-yl)piperidin-4-yl)methanone]	1 to 100 nM
N#Cc1ccnc(N2CCC(C(=O)N3N=CCC3c3ccccc3)CC2)n1 (racemic) [Example 5, 2-(4-(5-phenyl-4,5-dihydro-1H-pyrazole-1-carbonyl)piperidin-1-yl)pyrimidine-4-carbonitrile]	1 to 100 nM
COc1cnc(N2CCC(C(=O)N3N=CCC3c3ccccc3)CC2)nc1 (racemic) [Example 7, (1-(5-methoxypyrimidin-2-yl)piperidin-4-yl)(5-phenyl-4,5-dihydro-1H-pyrazol-1-yl)methanone]	1 to 100 nM
O=C(C1CCN(c2ncc3[nH]cnc3n2)CC1)N1N=CC[C@H]1c1ccccc1 [Example 9, (S)-(1-(7H-purin-2-yl)piperidin-4-yl)(5-phenyl-4,5-dihydro-1H-pyrazol-1-yl)methanone]	1 to 100 nM
Nc1nccc(N2CCC(C(=O)N3N=CC[C@H]3c3ccccc3)CC2)n1 [Example 11, (S)-(1-(2-aminopyrimidin-4-yl)piperidin-4-yl)(5-phenyl-4,5-dihydro-1H-pyrazol-1-yl)methanone]	1 to 100 nM
N#Cc1ccc(N2CCC(C(=O)N3N=CC[C@H]3c3cc(F)cc(F)c3)CC2)nn1 [Example 94, (S)-6-(4-(5-(3,5-difluorophenyl)-4,5-dihydro-1H-pyrazole-1-carbonyl)piperidin-1-yl)pyridazine-3-carbonitrile]	1 to 100 nM
N#Cc1cnc(N2CCC(C(=O)N3N=CC[C@H]3c3cc(F)cc(F)c3)CC2)cn1 [Example 95, (S)-5-(4-(5-(3,5-difluorophenyl)-4,5-dihydro-1H-pyrazole-1-carbonyl)piperidin-1-yl)pyrazine-2-carbonitrile]	1 to 100 nM
N#Cc1cc(N2CCC(C(=O)N3N=CC[C@H]3c3cncc(F)c3)CC2)ncn1 [Example 111, (S)-6-(4-(5-(5-fluoropyridin-3-yl)-4,5-dihydro-1H-pyrazole-1-carbonyl)piperidin-1-yl)pyrimidine-4-carbonitrile]	1 to 100 nM
O=C(NC1CC1)c1ccnc(N2CCC(C(=O)N3N=CC[C@H]3c3ccccc3)CC2)n1 [Example 125, (S)—N-cyclopropyl-2-(4-(5-phenyl-4,5-dihydro-1H-pyrazole-1-carbonyl)piperidin-1-yl)pyrimidine-4-carboxamide]	1 to 100 nM
Cc1nnc(-c2cc(N3CCC(C(=O)N4N=CC[C@H]4c4ccccc4)CC3)ncn2)o1 [Example 129, (S)-(1-(6-(5-methyl-1,3,4-oxadiazol-2-yl)pyrimidin-4-yl)piperidin-4-yl)(5-phenyl-4,5-dihydro-1H-pyrazol-1-yl)methanone]	1 to 100 nM
O=C1NCCC1c1nc(N2CCC(C(=O)N3N=CC[C@H]3c3cncc(F)c3)CC2)ncc1F (stereo partly drawn) [Example 151, 3-(5-fluoro-2-(4-((S)-5-(5-fluoropyridin-3-yl)-4,5-dihydro-1H-pyrazole-1-carbonyl)piperidin-1-yl)pyrimidin-4-yl)pyrrolidin-2-one]	1 to 100 nM
NC(=O)c1ncnc(N2CCC(C(=O)N3N=CC[C@H]3c3cncc(F)c3)CC2)c1F [Example 160, (S)-5-fluoro-6-(4-(5-(5-fluoropyridin-3-yl)-4,5-dihydro-1H-pyrazole-1-carbonyl)piperidin-1-yl)pyrimidine-4-carboxamide]	1 to 100 nM
